Assay results as given in patent publication US20230210829A1, “REJUVENATION OF AGED TISSUES BY INHIBITION OF THE PGE2 DEGRADING ENZYME, 15-PGDH” (The Board of Trustees of the Leland Stanford Junior …, priority 2020, published 2023).

Legend:
aged mice [1] = assay: Hematoxylin and Eosin (H&E) histological evaluation of spleen in aged mice treated with 15-PGDH inhibitor; type: in vivo; settings: aged (25 months) mice, intraperitoneally for 4 weeks, H&E staining
Method: FIG. 3. […] Hematoxylin and Eosin (H&E) staining of spleen in young vehicle treated (4 months), aged vehicle treated (25 months) and aged SW033291 treated (25 months) intraperitoneally for 4 weeks.
(§1) All experiments and protocols were performed in compliance with the institutional guidelines of Stanford University and Administrative Panel on Laboratory Animal Care (APLAC). Aged (>24 mo.) mice C57BL/6 were obtained from the US National Institute on Aging (NIA) for aged muscle studies, and young (2-4 mo.) wild-type C57BL/6 mice from Jackson Laboratory.

aged mice [2] = assay: Luminex assay of mouse sera (serum cytokine levels) in aged mice treated with 15-PGDH inhibitor; type: in vivo; settings: aged (25 months) mice, 4 weeks intraperitoneal administration
Source text: FIGS. 4A-4H. Inhibition of 15-PGDH rejuvenates systemic cytokine levels. Serum levels of (FIG. 4A) interleukin-10 (IL10), (FIG. 4B) interleukin-6 (IL6), (FIG. 4C) betacellulin (BTC), (FIG. 4D) granulocyte-macrophage colony-stimulating factor (GM-CSF), (FIG. 4E) interleukin-13 (IL13), (FIG. 4F) tumor necrosis factor-alpha (TNFA), (FIG. 4G) interleukin-1 beta (IL1B), and (FIG. 4H) interleukin-22 (IL22) measured in young vehicle (4 months), young SW033291 (4 months), aged vehicle treated (25 months), and aged SW033291 treated (25 months) mice by Luminex bead arrays. MFI—Mean fluorescence intensity.
as §1
Aging is associated with an altered state of inflammation and is associated with changes in circulating levels of various cytokines. Altered cytokine signaling in aging can initiate a cascade of dysregulated signaling pathways that negatively impact the function of various organs. Age-dysregulated cytokine signaling has been implicated in increased mortality, frailty, cellular senescence, vascular aging, cognitive decline, atherosclerosis, risk of osteoarthritis, and loss of bone mineral density in aging. […] Furthermore, a reduction of IL6 is associated with reduced adipose tissue inflammation and reduced cellular senescence. […] Increased IL22 levels are anti-inflammatory in colonic tissue and are beneficial for inflammatory bowel disease and colitis. […] This systemic effect in turn ameliorates the function of other tissues.

With `CCCC[S+]([O-])c1sc2nc(-c3cccs3)cc(-c3ccccc3)c2c1N` (stereo not drawn) [SW033291, 2-(butylsulfinyl)-4-phenyl-6-(thiophen-2-yl)thieno[2,3-b]pyridin-3-amine] the “cell density within the splenic follicles” value (aged mice [1]) was “increased cell density within the follicles”, the “follicular structure of spleen” value (aged mice [1]) was “restored” and the “marginal zone of spleen” value (aged mice [1]) was “reestablished”. For the same compound, the splenic morphology (aged mice [1]; vs aged vehicle and young) was “rejuvenated the splenic morphology”, the “serum level of interleukin-10 (IL10)” value (aged mice [2]; FIG. 4A) was “restored to levels similar to those of young mice” and the “serum level of interleukin-6 (IL6)” value (aged mice [2]; FIG. 4B) was “restored to levels similar to those of young mice”. The “serum level of betacellulin (BTC)” value (aged mice [2]; FIG. 4C) was “restored to levels similar to those of young mice”, the “serum level of granulocyte-macrophage colony-stimulating factor (GM-CSF)” value (aged mice [2]; FIG. 4D) was “restored to levels similar to those of young mice” and the “serum level of interleukin-13 (IL13)” value (aged mice [2]; FIG. 4E) was “restored to levels similar to those of young mice”. For the same compound, the “serum level of tumor necrosis factor-alpha (TNFA)” value (aged mice [2]; FIG. 4F) was “further increased”, the “serum level of interleukin-1 beta (IL1B)” value (aged mice [2]; FIG. 4G) was “further increased” and the “serum level of interleukin-22 (IL22)” value (aged mice [2]; FIG. 4H) was “further increased”.
